From ChEMBL document CHEMBL4265868, “N-alkanol-N-cyclohexanol amine aryl esters: Multidrug resistance (MDR) reversing agents with high potency and efficacy” (Eur J Med Chem, 2017)
Active and inactive are the calls of the source. The rule behind the calls is not given here.

Tests used:
[1] = Half life in human plasma by LC-MS/MS method; assay type: ADME, cell-free
[2] = tested on: K562; assay: Toxicity in human K562 cells assessed as reduction in cell viability at 0.1 to 3 uM incubated for 72 hrs by MTT assay; assay type: cell-based; conditions: k562, 72 h
[3] = Toxicity in human K562/Dox cells assessed as reduction in cell viability at 0.1 to 3 uM incubated for 72 hrs by MTT assay; assay type: cell-based
[4] = tested on: K562; assay: Potentiation of doxorubicin-induced cytotoxicity in human K562 cells assessed as reduction in cell viability at 0.1 to 3 uM incubated for 72 hrs by MTT assay; assay type: cell-based; conditions: k562, 72 h
[5] = species on record: Homo sapiens; assay: Inhibition of P-gp in human K562/DOX cells assessed as potentiation of doxorubicin-induced cytotoxicity by measuring reduction in doxorubicin IC50 at 0.1 uM incubated for 72 hrs by MTT assay relative to control; assay type: cell-based
[6] = species on record: Homo sapiens; assay: Inhibition of P-gp in human K562/DOX cells assessed as potentiation of doxorubicin-induced cytotoxicity by measuring reduction in doxorubicin IC50 at 1 uM incubated for 72 hrs by MTT assay relative to control; assay type: cell-based
[7] = species on record: Homo sapiens; assay: Inhibition of P-gp in human K562/DOX cells assessed as potentiation of doxorubicin-induced cytotoxicity by measuring reduction in doxorubicin IC50 at 3 uM incubated for 72 hrs by MTT assay relative to control; assay type: cell-based
[8] = tested on: K562; assay: Effect on rhodamine-123 efflux in human K562 cells at 1 uM incubated for 10 mins hrs by flow cytometry; assay type: ADME, cell-based; conditions: k562, 10 min
[9] = tested on: K562; assay: Inhibition of P-gp in human K562/DOX cells assessed as increase in rhodamine-123 […] in human K562 cells at 1 uM incubated for 10 mins hrs by flow cytometry relative to untreated control; assay type: cell-based
[10] = Stability in PBS buffer assessed as drug degradation incubated for 30 to 120 mins by LC-MS/MS method; assay type: physicochemical; conditions: read-out: Drug degradation
[11] = Stability in presence of bovine serum and human K562/DOX cells assessed as drug degradation incubated for 30 to 120 mins by LC-MS/MS method; assay type: ADME; conditions: K562/DOX cells with bovine serum, read-out: Drug degradation
[12] = species on record: Homo sapiens
Description: Inhibition of P-gp in human K562/DOX cells assessed as drug level causing 50% increase in nuclear pirarubicin concentration incubated for 30 mins by spectroflurometry

[13] = Stability in human plasma assessed as parent compound remaining incubated for 120 mins by LC-MS/MS method; assay type: ADME, cell-free; conditions: read-out: Stability

SMILES	half-life [1] [h]	degraded [10] [%]	metabolised [11] [%]	remaining at 2 h [13] [%]	Activity [2]	Activity [3]	Activity [4]	Ratio IC50 [5]	Ratio IC50 [6]	Ratio IC50 [7]	Activity [8]	fold change (FC) [9]	I0.5 [12] [µM]	inhibition [9]
COc1cc(/C=C/C(=O)O[C@H]2CC[C@@H](N(C)CCCCCOC(=O)c3cc(OC)c(OC)c(OC)c3)CC2)cc(OC)c1OC	≥ 4	< 5	< 5		Non-Toxic	Non-Toxic	Non-Toxic	1.6	5.5	14.7	Non-Toxic	10 to 80	0.09	
COc1cc(/C=C/C(=O)O[C@H]2CC[C@H](N(C)CCCOC(=O)c3cc(OC)c(OC)c(OC)c3)CC2)cc(OC)c1OC	≤ 1	< 5	< 5										0.07	
COc1cc(/C=C/C(=O)O[C@H]2CC[C@@H](N(C)CCCOC(=O)c3cc(OC)c(OC)c(OC)c3)CC2)cc(OC)c1OC	≥ 4	< 5	< 5										0.47	
COc1cc(/C=C/C(=O)O[C@H]2CC[C@H](N(C)CCCCCOC(=O)c3cc(OC)c(OC)c(OC)c3)CC2)cc(OC)c1OC	≥ 4	< 5	< 5		Non-Toxic	Non-Toxic	Non-Toxic	2.3	32.8	57.9	Non-Toxic	80	0.13	
COc1cc(/C=C/C(=O)O[C@H]2CC[C@@H](N(C)CCCCOC(=O)c3cc(OC)c(OC)c(OC)c3)CC2)cc(OC)c1OC	≥ 4	< 5	< 5		Non-Toxic	Non-Toxic	Non-Toxic	2.8	4.6	34.9	Non-Toxic	10 to 80	0.29	
COc1cc2c(cc1OC)CN(CCc1ccc(NC(=O)c3cc(OC)c(OC)cc3NC(=O)c3cnc4ccccc4c3)cc1)CC2									29.7					Active
COc1cc(/C=C/C(=O)O[C@H]2CC[C@H](N(C)CCCCOC(=O)c3cc(OC)c(OC)c(OC)c3)CC2)cc(OC)c1OC	≤ 2	< 5	< 5		Non-Toxic	Non-Toxic	Non-Toxic	3.3	12.9	50	Non-Toxic	60	0.06	
CCOC(=O)C(C)c1cccc(C(=O)c2ccccc2)c1 (stereo not given)	< 2													

Now from value to molecule, other results behind:

half-life [1] [h]	degraded [10] [%]	metabolised [11] [%]	remaining at 2 h [13] [%]	SMILES	Activity [2]	Activity [3]	Activity [4]	Ratio IC50 [5]	Ratio IC50 [6]	Ratio IC50 [7]	Activity [8]	fold change (FC) [9]	I0.5 [12] [µM]	inhibition [9]
≥ 4	< 5	< 5		COc1cc(/C=C/C(=O)OCCCCCN(C)[C@H]2CC[C@@H](OC(=O)c3cc(OC)c(OC)c(OC)c3)CC2)cc(OC)c1OC									0.51	
2 to 4	< 5	< 5	50	COc1cc(/C=C/C(=O)OCCCCN(C)[C@H]2CC[C@H](OC(=O)c3cc(OC)c(OC)c(OC)c3)CC2)cc(OC)c1OC									0.08	
≥ 4	< 5	< 5		COc1cc(/C=C/C(=O)OCCCCCN(C)[C@H]2CC[C@H](OC(=O)c3cc(OC)c(OC)c(OC)c3)CC2)cc(OC)c1OC									0.1	
≥ 4	< 5	< 5		COc1cc(/C=C/C(=O)OCCCCN(C)[C@H]2CC[C@@H](OC(=O)c3cc(OC)c(OC)c(OC)c3)CC2)cc(OC)c1OC									0.35	
≤ 2	< 5	< 5		COc1cc(/C=C/C(=O)OCCCN(C)[C@H]2CC[C@H](OC(=O)c3cc(OC)c(OC)c(OC)c3)CC2)cc(OC)c1OC									0.08	
2 to 4	< 5	< 5	75	COc1cc(/C=C/C(=O)OCCCN(C)[C@H]2CC[C@@H](OC(=O)c3cc(OC)c(OC)c(OC)c3)CC2)cc(OC)c1OC									0.25	
